In ChEMBL document CHEMBL1135951, “Potential anxiolytic agents. Part 4: novel orally-active N(5)-substituted pyrido[1,2-a]benzimidazoles with high GABA-A receptor affinity” (Bioorg Med Chem Lett, 2002):

Assays:
[1] = target: T1, GABA-A receptor; anion channel (Rattus norvegicus) (UniProt O09028+P15431+P18506+P18508+P19969+P20236+P23574+P23576+P28471+P28473+P30191+P62813+P63079+P63138+Q91ZM7+Q9ES14); test: Ratio of the binding in the absence and presence of GABA was determined.; format: protein-complex assay
Mus musculus [2] = test: Effective dose required for inhibition of pentylenetetrazole (PTZ)-induced seizures in mice intraperitoneally; format: functional; conditions: ip
[3] = target: GABA-A receptor; anion channel; test: In vitro affinity for BZD site on GABA-A receptor from rat cerebral cortex using radioligand [3H]flunitrazepam; format: tissue-based
Mus musculus [4] = species: Mus musculus; test: Effective dose required for inhibition of pentylenetetrazole (PTZ)-induced seizures in mice perorally; format: functional; conditions: po
Rattus norvegicus [5] = species: Rattus norvegicus; test: Minimum effective dose required for anticonflict in rat perorally; format: functional; conditions: po, read-out: MED
[6] = target: T1, GABA-A receptor; anion channel (Rattus norvegicus); test: Minimum effective dose required for anticonflict in rat intraperitoneally; format: functional
Rattus norvegicus [7] = test: In vivo minimum effective dose required for anticonflict in rat intraperitoneally; format: functional
Mus musculus [8] = species: Mus musculus; test: Effective dose required for motor impairment in the horizontal screen in mouse perorally; format: functional
Rattus norvegicus [9] = test: In vivo minimum effective dose required for anticonflict effect in rat perorally; format: functional
Rattus norvegicus [10] = test: In vivo minimum effective dose required for potentiation of EtOH-induced sleep time in rat; format: functional
Mus musculus [11] = species: Mus musculus; test: Ratio of effective dose required for motor impairment in the horizontal screen to the inhibition of pentylenetetrazole (PTZ)-induced seizures in mice; format: functional
Mus musculus [12] = test: In vivo effective dose required for inhibition of pentylenetetrazole (PTZ)-induced seizures in mice intraperitoneally; format: functional
Rattus norvegicus [13] = species: Rattus norvegicus; test: Ratio of minimum effective dose for potentiation of EtOH-induced sleep time to anticonflict effect in rat; format: functional
Mus musculus [14] = test: Effective dose required for motor impairment in the horizontal screen in mouse intraperitoneally; format: functional
Mus musculus [15] = test: In vivo effective dose required for inhibition of pentylenetetrazole (PTZ)-induced seizures in mice perorally; format: functional

Structure (SMILES) | GABA shift [1] | ED50 (Mus musculus [2]) | IC50 [3] | ED50 (Mus musculus [4]) | minimal effective dose (Rattus norvegicus [5]) | MED [6] | MED (Rattus norvegicus [7]) | ED50 (Mus musculus [8]) | MED (Rattus norvegicus [9]) | MED (Rattus norvegicus [10]) | Ratio (Mus musculus [11]) | ED50 (Mus musculus [12]) | Ratio (Rattus norvegicus [13]) | ED50 (Mus musculus [14]) | ED50 (Mus musculus [15])
CCOCN1C2=C(C(=O)Nc3cccs3)C(=O)CCN2c2ccc(F)cc21 | 2.1 | ≤ 1 mg/kg | 1 nM | 0.2 mg/kg | 3 mg/kg | – | – | – | – | – | – | – | – | – | –
CN(C)c1ccc(CCN2C3=C(C(=O)Nc4ccccc4F)C(=O)CCN3c3ccc(F)cc32)cc1 | 1.3 | 1 mg/kg | 8.5 nM | < 30 mg/kg | – | > 10 mg/kg | – | – | – | – | – | – | – | – | –
N=C(N)NCCN1C2=C(C(=O)Nc3ccccc3F)C(=O)CCN2c2ccc(F)cc21 | 1.7 | > 1 mg/kg | 5.6 nM | > 30 mg/kg | > 10 mg/kg | – | – | – | – | – | – | – | – | – | –
CCOCN1C2=C(C(=O)Nc3sccc3Cl)C(=O)CCN2c2ccc(F)cc21 | 1.6 | ≤ 1 mg/kg | 0.7 nM | 10 mg/kg | > 10 mg/kg | – | – | – | – | – | – | – | – | – | –
CN(C)/C=N/CCN1C2=C(C(=O)Nc3ccccc3F)C(=O)CCN2c2ccc(F)cc21 | 2.1 | ≤ 1 mg/kg | 35 nM | 30 mg/kg | 30 mg/kg | – | – | – | – | – | – | – | – | – | –
CC(=O)OCCN1C2=C(C(=O)Nc3ccccc3F)C(=O)CCN2c2ccc(F)cc21 | 1.2 | ≤ 1 mg/kg | 0.2 nM | 3 mg/kg | 3 mg/kg | – | – | – | – | – | – | – | – | – | –
CN(C)CCN1C2=C(C(=O)Nc3ccccc3F)C(=O)CCN2c2ccc(F)cc21 | 2.7 | 0.5 mg/kg | 49.9 nM | ≤ 3 mg/kg | 3 mg/kg | < 10 mg/kg | – | – | – | – | – | – | – | – | –
CCOCN1C2=C(C(=O)Nc3ccccc3F)C(=O)CCN2c2c1ccc(F)c2F | 1.7 | 1 mg/kg | 126 nM | > 30 mg/kg | > 10 mg/kg | – | – | – | – | – | – | – | – | – | –
O=C1CCN2C(=C1C(=O)Nc1ccccc1F)N(CCc1ccccn1)c1cc(F)ccc12 | 2 | 0.3 mg/kg | 0.9 nM | 10 mg/kg | > 10 mg/kg | 10 mg/kg | – | – | – | – | – | – | – | – | –
COC(=O)OCCN1C2=C(C(=O)Nc3ccccc3F)C(=O)CCN2c2ccc(F)cc21 | 2.2 | ≤ 1 mg/kg | 0.3 nM | 3 mg/kg | 3 mg/kg | – | – | – | – | – | – | – | – | – | –
CCOCN1C2=C(C(=O)Nc3ccsc3)C(=O)CCN2c2ccc(F)cc21 | 1.7 | ≤ 1 mg/kg | 1 nM | < 0.2 mg/kg | 0.3 mg/kg | – | – | – | – | – | – | – | – | – | –
CCOCN1C2=C(C(=O)Nc3c(F)cccc3F)C(=O)CCN2c2ccc(F)cc21 | 1.6 | 1 mg/kg | 0.6 nM | 3 mg/kg | > 10 mg/kg | > 10 mg/kg | – | – | – | – | – | – | – | – | –
CCOCCN1C2=C(C(=O)Nc3ccccc3F)C(=O)CCN2c2ccc(F)cc21 | 3.2 | ≤ 1 mg/kg | 0.5 nM | 0.3 mg/kg | 1 mg/kg | < 10 mg/kg | – | – | – | – | – | – | – | – | –
CN(C)CCCN1C2=C(C(=O)Nc3ccccc3F)C(=O)CCN2c2ccc(F)cc21 | 1.4 | 3 mg/kg | 3.3 nM | 30 mg/kg | > 10 mg/kg | 10 mg/kg | – | – | – | – | – | – | – | – | –
O=C1CCN2C(=C1C(=O)Nc1ccccc1F)N(CC1CCCO1)c1cc(F)ccc12 (configuration not stated) | 2.2 | ≤ 1 mg/kg | 2.3 nM | 3 mg/kg | 3 mg/kg | – | – | – | – | – | – | – | – | – | –
O=C1CCN2C(=C1C(=O)Nc1ccccc1F)N(CCn1ccnc1)c1cc(F)ccc12 | 2.6 | 1 mg/kg | 1.6 nM | 10 mg/kg | > 10 mg/kg | – | – | – | – | – | – | – | – | – | –

Structure (SMILES) | GABA shift [1] | ED50 (Mus musculus [2]) | IC50 [3] | ED50 (Mus musculus [4]) | minimal effective dose (Rattus norvegicus [5]) | MED [6] | MED (Rattus norvegicus [7]) | ED50 (Mus musculus [8]) | MED (Rattus norvegicus [9]) | MED (Rattus norvegicus [10]) | Ratio (Mus musculus [11]) | ED50 (Mus musculus [12]) | Ratio (Rattus norvegicus [13]) | ED50 (Mus musculus [14]) | ED50 (Mus musculus [15])
CCOCCCN1C2=C(C(=O)Nc3ccccc3F)C(=O)CCN2c2ccc(F)cc21 | 1.6 | ≤ 1 mg/kg | 0.3 nM | 0.3 mg/kg | 1 mg/kg | – | – | – | – | – | – | – | – | – | –
CCOCN1C2=C(C(=O)Nc3ccccc3F)C(=O)CCN2c2ccccc21 | 2 | > 1 mg/kg | 151 nM | 3 mg/kg | 10 mg/kg | – | – | – | – | – | – | – | – | – | –
NCCN1C2=C(C(=O)Nc3ccccc3F)C(=O)CCN2c2ccc(F)cc21 | 2.7 | 0.3 mg/kg | 5.1 nM | 10 mg/kg | 10 mg/kg | 10 mg/kg | – | – | – | – | – | – | – | – | –
O=C1CCN2C(=C1C(=O)Nc1ccccc1F)N(CCN1CCOCC1)c1cc(F)ccc12 | 2.2 | 1 mg/kg | 6.1 nM | 30 mg/kg | – | > 10 mg/kg | – | – | – | – | – | – | – | – | –
CCOCN1C2=C(C(=O)Nc3ccc(OC)cc3F)C(=O)CCN2c2ccc(F)cc21 | 2.2 | – | 0.4 nM | 0.3 mg/kg | 0.03 mg/kg | 0.1 mg/kg | – | – | – | – | – | – | – | – | –
CCOCN1C2=C(C(=O)Nc3ccc(C)s3)C(=O)CCN2c2ccc(F)cc21 | 2.3 | ≤ 1 mg/kg | 0.7 nM | 0.5 mg/kg | 0.3 mg/kg | – | – | – | – | – | – | – | – | – | –
CCOCN1C2=C(C(=O)Nc3ccccc3F)C(=O)CCN2c2ccc(Cl)cc21 | 2.8 | < 1 mg/kg | 0.5 nM | 2 mg/kg | > 10 mg/kg | – | – | – | – | – | – | – | – | – | –
COCCOCN1C2=C(C(=O)Nc3ccccc3F)C(=O)CCN2c2ccc(F)cc21 | 2.2 | 0.003 mg/kg | 0.8 nM | 0.1 mg/kg | 3 mg/kg | < 10 mg/kg | <=10 | 30 | 3 | 3 | 300 | 0.003 | 1 | 0.07 | 0.1
CCOCN1C2=C(C(=O)Nc3ccccc3F)C(=O)CCN2c2ccc(F)c(F)c21 | 1.7 | < 1 mg/kg | 0.5 nM | < 3 mg/kg | 1 mg/kg | – | – | – | – | – | – | – | – | – | –
CCOCN1C2=C(C(=O)Nc3ccccc3F)C(=O)CCN2c2cc(F)cc(F)c21 | 2.9 | – | 13.3 nM | – | > 10 mg/kg | – | – | – | – | – | – | – | – | – | –
O=C(Nc1ccccc1F)C1=C(O)CCn2c1nc1cc(F)ccc12 | 1.8 | ≤ 1 mg/kg | – | > 30 mg/kg | > 30 mg/kg | 10 mg/kg | – | – | – | – | – | – | – | – | –
O=C1CCN2C(=C1C(=O)Nc1ccccc1F)N(CCO)c1cc(F)ccc12 | 2.7 | ≤ 1 mg/kg | 1.2 nM | < 30 mg/kg | > 10 mg/kg | 10 mg/kg | – | – | – | – | – | – | – | – | –
O=C1CCN2C(=C1C(=O)Nc1ccccc1F)N(CCCO)c1cc(F)ccc12 | 1.8 | 0.1 mg/kg | 1.1 nM | 0.5 mg/kg | 10 mg/kg | 10 mg/kg | – | – | – | – | – | – | – | – | –
COCCNCCN1C2=C(C(=O)Nc3ccccc3F)C(=O)CCN2c2ccc(F)cc21 | 1.8 | 1 mg/kg | 7.4 nM | 1 mg/kg | 10 mg/kg | 10 mg/kg | – | – | – | – | – | – | – | – | –
CCOCN1C2=C(C(=O)Nc3ccccc3F)C(=O)CCN2c2cc3ccccc3cc21 | 1.4 | < 1 mg/kg | 2.2 nM | > 30 mg/kg | > 10 mg/kg | – | – | – | – | – | – | – | – | – | –
